# According to patent US8546611B2 (priority 2008, dated 2013):
# Columns and labels:
# [1] = tested on: erythroid cells isolated from the bone marrow of laboratory mice males; conditions: feed with succinic acid 20 mg/kg body wt., not irradiated, norm 5.0±1.0
# Experimental: The test for genotoxicity was performed on young laboratory mice males (18-20 g; 6 animals in each group). […] The control animals were given water.
# [2] = compared with “natural” SA
# [3] = tested on: erythroid cells isolated from the bone marrow of gamma-irradiated laboratory mice males; test: Radioprotective properties (micronucleus test after gamma irradiation)
# white rat females = conditions: female, in vivo, 5000 mg/kg
# [4] = tested on: patients with cardiac insufficiency
# Experimental: The test for cardiotonic activity of product samples was performed by measuring the dynamics of alteration of the functional class of cardiac failure. The functional class can be determined quite accurately by analyzing the everyday life activities according to a specific activity scale. The authors of this technique suppose that the criteria developed by NYHA (New York Heart Association) cannot provide accurate determination of functional class, since widely used terms, such as “everyday physical activity”, “sub-everyday activity” are not specific. On the basis of multiple tests, in which patients exercised on a treadmill, the authors calculated a scale of metabolic expenses for each kind of life activity (see Goldman L., Hashimoto B., Cook F. et al., Comparative reproducibility and validity of systems for assessing cardiovascular functional class: advantages of a new specific activity scale (1981) Circulation 64 (6):1227-34). This inquiry is designed to be used by medical personnel, interviewing a patient. After calculating the sum of possible energy expenses, the functional class of the patient is determined according to the summary criteria of the specific activity scale (Table 6).
# In the tests, the patient groups were formed so that the people of the same functional class were equally distributed among different groups. Severe patients (of IV functional class; those having oncological diseases or suffered myocardial infarction/stroke to the brain 60 days or less before) were not admitted to the tests. The distribution of patients among groups was governed by a random number generator. The tests were carried out by the following protocol. Each patient took 100 mg of the preparation twice per day (in the morning and after lunch) during 3 months—against the background of a standard therapy administered by a physician. […] All the samples and placebo were encoded before sending into the clinic, so none of those involved into the tests (patients, physicians, medical personnel and the manager of tests) was aware of the nature of samples.
# The functional class of patients was determined several times: at the beginning of tests (before the formation of test groups) and after 30, 60 and 90 days of treatment with the test samples. The estimation was performed on the basis of the activity scale (Table 7).
# Wistar rat males = tested on: Wistar rat males
# Experimental: Examples, illustrating the method invented, are presented below. […] SA is tested on rats endured an immobilization stress; the parameter tested is lymphocytic composition of blood, which is determined before and after stress in a blood smear taken from the caudal vein. […] A detailed description of the testing technique is given in Example 13.
# The animals were fixed while lying flat on their back, with their legs secured. […] Blood was taken from the caudal vein: 10 μl for counting blood corpuscles and 20 μl for preparing a smear with its subsequent staining by Romanovsky-Giemsa).
# First group: 10 min prior immobilization, the animals were injected (perorally, with the help of a stomach pump) with 1.5 ml of 1% starch solution. […] Blood was taken from the caudal vein at the moment of immobilization and 6 hours later, and stained blood smears were prepared to calculate the leukogram.
# [5] = 100 mg twice per day with standard therapy, after 30 days
# [6] = 100 mg twice per day with standard therapy, after 60 days
# [7] = 100 mg twice per day with standard therapy, after 90 days
# [8] = 100 mg twice per day, 3 months, with standard therapy, before treatment
# [9] = 6 h after immobilization, 1.5 ml of 1% succinic acid perorally 10 min prior, listed as Ex. 3
# [10] = at the moment of immobilization, 1.5 ml of 1% succinic acid perorally 10 min prior, listed as Ex. 3
compound,measurement,setting,value
"O=C(O)CCC(=O)O [Example 3, succinic acid, reference compound]",Number of micronuclei per 2000 cells (genotoxicity),[1],5.0 ± 0.6
same,"biological activity, overall conclusion in words",[2],higher activity but it is far from that of “natural” SA
same,"radioprotective effect, conclusion in words","[3]; gamma rays 1.3 Gy, 20 mg/kg body wt., 48 h, 20 mg/kg",close to the dividing line
same,Number of micronuclei per 2000 cells (radioprotective properties),"[3]; mice irradiated with gamma rays 1.3 Gy, then fed 48 h succinic acid 20 mg/kg body wt., critical value 16±2",16.0 ± 1.6
same,"died, 14 day",white rat females; 14 day,2
same,Total died,white rat females; 14 days,2
same,"patients of functional class I, day 30",[4]; [5],9
same,"patients of functional class II, day 30",[4]; [5],7
same,"patients of functional class III, day 30",[4]; [5],4
same,"patients of functional class IV, day 30",[4]; [5],0
same,"patients of functional class I, day 60",[4]; [6],9
same,"patients of functional class II, day 60",[4]; [6],7
same,"patients of functional class III, day 60",[4]; [6],4
same,"patients of functional class IV, day 60",[4]; [6],0
same,"patients of functional class I, day 90",[4]; [7],10
same,"patients of functional class II, day 90",[4]; [7],7
same,"patients of functional class III, day 90",[4]; [7],3
same,"patients of functional class IV, day 90",[4]; [7],0
same,"cardiotonic properties / dynamics of functional class, conclusion in words","[4]; 100 mg twice per day, 3 months",more expressed
same,"patients of functional class I, day 0",[4]; [8],8
same,"patients of functional class II, day 0",[4]; [8],7
same,"patients of functional class III, day 0",[4]; [8],5
same,"patients of functional class IV, day 0",[4]; [8],0
same,"adaptogenic properties, conclusion in words","Wistar rat males; 6-hour immobilization stress, Wistar rats",at the “borderline”
same,"Eosinophils, 6 h after",Wistar rat males; [9],0.5 ± 4%
same,"Lymphocytes, 6 h after",Wistar rat males; [9],73 ± 5%
same,"Number of leukocytes in 1 μl of blood, 6 h after",Wistar rat males; [9],7100
same,"Segmentated cells, 6 h after",Wistar rat males; [9],26 ± 3%
same,"Eosinophils, before",Wistar rat males; [10],2 ± 6%
same,"Lymphocytes, before",Wistar rat males; [10],76 ± 6%
same,"Number of leukocytes in 1 μl of blood, before",Wistar rat males; [10],5700
same,"Segmentated cells, before",Wistar rat males; [10],22 ± 3%
